Experimental data published in ChEMBL document CHEMBL5380793, “Structure-Activity Relationship of Novel Pyrimidine Derivatives with Potent Inhibitory Activities against Mycobacterium tuberculosis” (J Med Chem, 2023).
Values after ≈ are worked out from the molar mass of the structure shown.

Legend:
[1] = tested on: Mycobacterium tuberculosis; assay: Antitubercular activity against marker free autoluminescent Mycobacterium tuberculosis H37Ra assessed as reduction in relative light unit measured once a day for 6 days; format: functional; settings: 144 h, time 6 day
[2] = Cytotoxicity against human HepG2 cells assessed as inhibition of cell growth incubated for 48 hrs by MTT assay; format: toxicity, cell-based

Structure (SMILES)	MIC [1] [mg/L]	IC50 at 48 h [2] [µM]
Cc1cc2nc(-c3ccccc3)cc(Nc3cc(C)c(C4CCNCC4)cc3OC(C)C)n2n1	8 (≈ 17.6 µM)	4.7
Cc1cc(C)cc(-c2ncc(Cl)c(Nc3cc(C)c(C4CCNCC4)cc3OC(C)C)n2)c1	1 (≈ 2.15 µM)	2.9
CCC(C)Oc1cc(N2CCNCC2)ccc1Nc1nc(-c2ccccc2)ncc1Cl (stereo not given)	1 (≈ 2.28 µM)	2.3
Cc1cc(Nc2nc(-c3ccc(Cl)cc3)ncc2Cl)c(OC(C)C)cc1C1CCNCC1	0.5 (≈ 1.06 µM)	2.3
Cc1cc(Nc2nc(NC3CCCC3)ncc2Cl)c(OC(C)C)cc1C1CCNCC1	1 (≈ 2.25 µM)	3.8
Cc1cc(Nc2nc(-c3ccc(C(C)(C)C)cc3)ncc2Cl)c(OC(C)C)cc1C1CCNCC1	1 (≈ 2.03 µM)	2.3
Cc1cc(Nc2cc(-c3ccccc3)nc3ncnn23)c(OC(C)C)cc1C1CCNCC1	4 (≈ 9.04 µM)	4.4
COc1cccc(Nc2ncc(Cl)c(Nc3cc(C)c(C4CCNCC4)cc3OC(C)C)n2)c1	1 (≈ 2.07 µM)	1.3
Cc1cc(NC(=O)Nc2ccc(F)cc2)c(OC(C)C)cc1C1CCNCC1	> 64	> 20
Cc1cc(Nc2nc(-c3ccncc3)ncc2Cl)c(OC(C)C)cc1C1CCNCC1	2 (≈ 4.57 µM)	2
Cc1cc(Nc2nc(C3CC3)ncc2Cl)c(OC(C)C)cc1C1CCNCC1	2 (≈ 4.99 µM)	2
COc1cc(N2CCNCC2)ccc1Nc1nc(-c2ccccc2)ncc1Cl	4 (≈ 10.1 µM)	2.7
Clc1cnc(-c2ccccc2)nc1Nc1ccc(N2CCNCC2)cc1OC1CCCC1	1 (≈ 2.22 µM)	2.7
Cc1cc(Nc2nc(Nc3cccc4ccccc34)ncc2Cl)c(OC(C)C)cc1C1CCNCC1	2 (≈ 3.98 µM)	2.2
Cc1cc(Nc2nc(-c3ccc4ccccc4c3)ncc2Cl)c(OC(C)C)cc1C1CCNCC1	0.5 (≈ 1.03 µM)	0.5
Cc1cc(Nc2nc(Nc3ccc(Cl)cc3Cl)ncc2Cl)c(OC(C)C)cc1C1CCNCC1	2 (≈ 3.84 µM)	2.5
Cc1cc(Nc2nc(-c3cccc(O)c3)ncc2Cl)c(OC(C)C)cc1C1CCNCC1	2 (≈ 4.42 µM)	1.3
Cc1cc(Nc2cc(C)c(C3CCNCC3)cc2OC(C)C)nc(-c2ccccc2)n1	4 (≈ 9.6 µM)	1.9
CC(C)COc1cc(N2CCNCC2)ccc1Nc1nc(-c2ccccc2)ncc1Cl	1 (≈ 2.28 µM)	2.6
Cc1cc(Nc2nc(Nc3cccc(Cl)c3)ncc2Cl)c(OC(C)C)cc1C1CCNCC1	1 (≈ 2.06 µM)	2
Cc1cc(Nc2nc(-c3ccc4c(c3)OCCO4)ncc2Cl)c(OC(C)C)cc1C1CCNCC1	1 (≈ 2.02 µM)	1
CCc1ncc(Cl)c(Nc2cc(C)c(C3CCNCC3)cc2OC(C)C)n1	8 (≈ 20.6 µM)	8
Cc1cc(Nc2nc(-c3cccc(CO)c3)ncc2Cl)c(OC(C)C)cc1C1CCNCC1	4 (≈ 8.57 µM)	4
Cc1cc(Nc2nc(-c3ccc4c(c3)OCO4)ncc2Cl)c(OC(C)C)cc1C1CCNCC1	1 (≈ 2.08 µM)	1
COc1ccccc1Nc1ncc(Cl)c(Nc2cc(C)c(C3CCNCC3)cc2OC(C)C)n1	2 (≈ 4.15 µM)	2
Cc1cc(Nc2ccnc(-c3ccccc3)n2)c(OC(C)C)cc1C1CCNCC1	4 (≈ 9.94 µM)	1.9
Clc1cnc(-c2ccccc2)nc1Nc1ccc(N2CCNCC2)cc1OCC1CCCCC1	2 (≈ 4.18 µM)	2.9
Cc1cc(Nc2nc(-c3ccccc3CO)ncc2Cl)c(OC(C)C)cc1C1CCNCC1	4 (≈ 8.57 µM)	2

Structure (SMILES)	MIC [1] [mg/L]	IC50 at 48 h [2] [µM]
CCCc1ccc(-c2ncc(Cl)c(Nc3cc(C)c(C4CCNCC4)cc3OC(C)C)n2)cc1	1 (≈ 2.09 µM)	2.2
Cc1cc(Nc2nc(-c3cccc4ccccc34)ncc2Cl)c(OC(C)C)cc1C1CCNCC1	0.5 (≈ 1.03 µM)	0.5
CNC(=O)c1ccc(-c2ncc(Cl)c(Nc3cc(C)c(C4CCNCC4)cc3OC(C)C)n2)cc1	2 (≈ 4.05 µM)	2
Cc1cc(Nc2nc(N)ncc2Cl)c(OC(C)C)cc1C1CCNCC1	32 (≈ 85.1 µM)	> 10
Cc1cc(Nc2cc(C(F)(F)F)nc(-c3ccccc3)n2)c(OC(C)C)cc1C1CCNCC1	2 (≈ 4.25 µM)	1.3
CCOc1cc(N2CCNCC2)ccc1Nc1nc(-c2ccccc2)ncc1Cl	2 (≈ 4.88 µM)	2.5
Cc1cc(Nc2cc(-c3ccccc3)nc3ccnn23)c(OC(C)C)cc1C1CCNCC1	4 (≈ 9.06 µM)	4.1
Cc1cc(Nc2nc(-c3ccc(C(C)C)cc3)ncc2Cl)c(OC(C)C)cc1C1CCNCC1	1 (≈ 2.09 µM)	2.2
Cc1cc(NC(=S)Nc2ccc(F)cc2)c(OC(C)C)cc1C1CCNCC1	> 64	> 20
Clc1cnc(-c2ccccc2)nc1Nc1ccc(N2CCNCC2)cc1	8 (≈ 21.9 µM)	3.3
CC(C)CCOc1cc(N2CCNCC2)ccc1Nc1nc(-c2ccccc2)ncc1Cl	1 (≈ 2.21 µM)	2.1
Cc1cc(Nc2nc(-c3cnc4ccccc4c3)ncc2Cl)c(OC(C)C)cc1C1CCNCC1	1 (≈ 2.05 µM)	1
CCCOc1cc(N2CCNCC2)ccc1Nc1nc(-c2ccccc2)ncc1Cl	1 (≈ 2.36 µM)	2.1
Cc1cc(Nc2nc(-c3cccnc3)ncc2Cl)c(OC(C)C)cc1C1CCNCC1	2 (≈ 4.57 µM)	1.7
Cc1cc(Nc2nc(-c3ccc(CO)cc3)ncc2Cl)c(OC(C)C)cc1C1CCNCC1	2 (≈ 4.28 µM)	2
Cc1cc(Nc2nc(-c3ccccc3)nc3ccsc23)c(OC(C)C)cc1C1CCNCC1	2 (≈ 4.36 µM)	1.7
Cc1cc(Nc2nc(-c3ccccc3)nc3ccccc23)c(OC(C)C)cc1C1CCNCC1	2 (≈ 4.42 µM)	2.8
CC(C)Oc1cc(N2CCNCC2)ccc1Nc1nc(-c2ccccc2)ncc1Cl	1 (≈ 2.36 µM)	2.9
CCCCOc1cc(N2CCNCC2)ccc1Nc1nc(-c2ccccc2)ncc1Cl	1 (≈ 2.28 µM)	2.6
Cc1cc(Nc2nc(Nc3cccc(F)c3)ncc2Cl)c(OC(C)C)cc1C1CCNCC1	0.5 (≈ 1.06 µM)	1.9
Cc1ccc(-c2ncc(Cl)c(Nc3cc(C)c(C4CCNCC4)cc3OC(C)C)n2)cc1	1 (≈ 2.22 µM)	2.5
Cc1cc(Nc2nc(NC3CC3)ncc2Cl)c(OC(C)C)cc1C1CCNCC1	4 (≈ 9.62 µM)	7.6
Cc1cc(Nc2nc(Nc3cccc(C(F)(F)F)c3)ncc2Cl)c(OC(C)C)cc1C1CCNCC1	1 (≈ 1.92 µM)	1.1
Cc1cc(Nc2nc(-c3ccccc3)ncc2F)c(OC(C)C)cc1C1CCNCC1	0.5 (≈ 1.19 µM)	2.8
Clc1cnc(-c2ccccc2)nc1Nc1ccc(N2CCNCC2)cc1OC1CCCCC1	2 (≈ 4.31 µM)	3.1
Cc1cc(Nc2nc(Cl)ncc2Cl)c(OC(C)C)cc1C1CCNCC1	16 (≈ 40.5 µM)	16
Cc1cc(Nc2nc(Nc3ccccc3F)ncc2Cl)c(OC(C)C)cc1C1CCNCC1	1 (≈ 2.13 µM)	1.9
